Measured values published in patent publication US4518602A, “Vinyl carboxylic acid derivatives, their production and use as inhibitors of thromboxane synthetase” (priority 1982, dated 1985).

Molecular target: T1, Thromboxane A2 (TXA2) synthetase (Equus caballus, UniProt A0A9L0T8T9)
T1 sequence (A0A9L0T8T9 2-534): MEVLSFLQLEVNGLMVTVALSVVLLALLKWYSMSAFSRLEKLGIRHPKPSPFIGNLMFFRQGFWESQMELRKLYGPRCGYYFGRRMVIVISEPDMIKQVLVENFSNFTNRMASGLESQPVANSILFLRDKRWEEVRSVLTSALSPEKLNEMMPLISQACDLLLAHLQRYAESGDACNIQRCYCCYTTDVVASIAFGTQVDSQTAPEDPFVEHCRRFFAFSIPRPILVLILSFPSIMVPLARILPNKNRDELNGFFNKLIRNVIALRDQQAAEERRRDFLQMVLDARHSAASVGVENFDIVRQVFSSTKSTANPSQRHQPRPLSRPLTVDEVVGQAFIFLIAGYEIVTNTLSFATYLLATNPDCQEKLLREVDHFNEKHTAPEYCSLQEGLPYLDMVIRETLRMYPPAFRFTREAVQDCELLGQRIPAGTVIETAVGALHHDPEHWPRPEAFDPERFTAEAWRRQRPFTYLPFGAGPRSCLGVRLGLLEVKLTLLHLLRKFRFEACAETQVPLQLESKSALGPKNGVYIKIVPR
Test: Inhibitory Action on Thromboxane A2 (TXA2) Synthetase (indomethacin-treated horse platelet microsomes, TXB2 radioimmunoassay)
Assay type: biochemical
Description: As a specimen of TXA2 synthetase was employed horse platelet microsomes treated with indomethacin (indomethacin-treated horse platelet microsomes: IPM), which were prepared according to the method described by Needleman et al. (Science 193 163, 1976).
to 60 μl of 50 mM tris-buffer solution (pH 7.5) of IPM (containing 140 μg as protein) was added 60 μl of the buffer solution or the solution containing the test compounds at various concentrations. The mixtures were left standing for 5 minutes at room temperature. Then at 0° C. to 100 μl portion of the mixture was added 20 μl of the buffer solution containing 30 ng of prostaglandin H2 (PGH2). The mixtures were left standing for 5 minutes at 0° C. to cause formation of thromboxane A2 (TXA2). The reaction of thromboxane A2 production was stopped by the addition of 500 μl of the tris-buffer to the mixture. Using 50 μl of the mixtures, the quantitative determination of thromboxane B2 (TXB2), a stable metabolite of TXA2, was done by means of the radioimmunoassay (Shibouta et al., Biochem. Pharmacol. 28 3601, 1979).
The inhibitory activity of the compounds on TXA2 -synthetase was determined from the difference in the production of TXB2 between the test group and the control group.

Structure (SMILES)	% Inhibition on thromboxane A2 synthetase (3 × 10^-8 M)	% Inhibition on thromboxane A2 synthetase (10^-7 M)	inhibition at 0.03 µM (3 × 10^-8 M)	inhibition at 0.1 µM (10^-7 M)
CC(C)(CCC/C=C(/c1cccnc1)c1cccs1)C(=O)O [3'-p]	46%	90%		
COC(=O)C(C)(CCC/C=C(\c1ccccc1)c1cccnc1)Sc1ccccc1 (stereo not drawn) [Compound 4-h]			30%	87%
O=C(O)C(CCC/C=C(/c1ccccc1)c1cccnc1)Cc1ccccc1 (stereo not drawn) [3'-e]			33%	90%
CC(C)(CCCC/C=C(\c1ccccc1)c1cccnc1)C(=O)O [Compound 1-l]			48%	90%
CSC(CCC/C=C(\c1ccccc1)c1cccnc1)C(=O)O (stereo not drawn) [Compound 4-a]			52%	84%
COCC(CCC/C=C(\c1ccccc1)c1cccnc1)C(=O)O (stereo not drawn) [3'-i]			42%	88%
CC(C)(CCC/C=C(\c1ccccc1)c1cccnc1)C(=O)O [Compound 2-a, (E)-2,2-dimethyl-7-phenyl-7-(3-pyridyl)-6-heptenoic acid]			83%	92%
CC(CCCC=C(c1cccnc1)c1ccsc1)C(=O)O (stereo not drawn) [Compound 2-e]			65%	90%
N#Cc1ccc(CC(CCC/C=C(\c2ccccc2)c2cccnc2)C(=O)O)cc1 (stereo not drawn) [3'-n]			57%	93%
CC(C)(CCC/C=C(/c1ccccc1)c1cccnc1)C(=O)O [Compound 2-b, (Z)-2,2-dimethyl-7-phenyl-7-(3-pyridyl)-6-heptenoic acid]			49%	90%
CC(C)(CCC/C=C(\c1cccnc1)c1cccs1)C(=O)O [3'-o]	60%	92%		
CC(C)(O)C(CCC/C=C(\c1ccccc1)c1cccnc1)C(=O)O (stereo not drawn) [Compound 5-j]			41%	81%
C=C(C)C(CCC/C=C(\c1ccccc1)c1cccnc1)C(=O)O (stereo not drawn) [Compound 5-g]			59%	92%
CC(C)(CCC/C=C(\c1cccnc1)c1cccs1)C(=O)O [Compound 2-c, (E)-2,2-dimethyl-7-(3-pyridyl)-7-(2-thienyl)-6-heptenoic acid]	92%			97%
CC(C)(CCC/C=C(/c1cccnc1)c1cccs1)C(=O)O [Compound 2-d, (Z)-2,2-dimethyl-7-(3-pyridyl)-7-(2-thienyl)-6-heptenoic acid]			62%	92%
Cc1ccc(S(=O)(=O)C(CCCC/C=C(/c2ccccc2)c2cccnc2)C(=O)O)cc1 (stereo not drawn) [Compound 1-b]			45%	80%
O=C(O)C(CCCC=C(c1ccccc1)c1cccnc1)[S+]([O-])c1ccccc1 (stereo not drawn) [Compound 1-e]			45%	80%
O=C(O)C(CCC/C=C(\c1ccccc1)c1cccnc1)Sc1ccccc1 (stereo not drawn) [Compound 4-b]			60%	93%
C#CCC(CCC/C=C(\c1ccccc1)c1cccnc1)C(=O)O (stereo not drawn) [3'-h]			66%	93%
O=C(O)C(CCC/C=C(/c1ccccc1)c1cccnc1)Sc1ccccc1 (stereo not drawn) [Compound 4-c]			50%	88%
O=C(O)C(CCC/C=C(\c1ccccc1)c1cccnc1)C1=CCCC1 (stereo not drawn) [Compound 5-i]			32%	77%
CC(C)(CCCC/C=C(/c1ccccc1)c1cccnc1)C(=O)O [Compound 1-m]			44%	92%
O=C(O)C(CCC/C=C(\c1cccnc1)c1cccs1)c1ccccc1 (stereo not drawn) [Compound 2-n]			41%	96%
Cc1ccc(S(=O)(=O)C(CCCC/C=C(\c2ccccc2)c2cccnc2)C(=O)O)cc1 (stereo not drawn) [Compound 1-d]			57%	85%
